One assay relates to MDA-MB-231. Nature of the assay: MTT cell growth inhibition, MDA-MB-231. It is filed as cell-based. Conditions: Homo sapiens, MDA-MB-231, 96 h, read-out: IC50 MDA-MB-231.
The next assay addresses EZH2 (Homo sapiens, UniProt Q15910). Nature of the assay: AlphaLISA assay for EZH2. In kind it is biochemical. Conditions: enzymatic assay; means of at least three measurements.
The subject of another assay is HCT15. Nature of the assay: MTT cell growth inhibition, HCT15. It is filed as cell-based, human. The settings on record: Homo sapiens, HCT-15, 96 h, read-out: IC50 HCT15, MTT, treatment 96 h; means of at least three measurements.

Experimental findings from article PMC6272711, “5-Methoxyquinoline Derivatives as a New Class of EZH2 Inhibitors” (Molecules, 2015) are described below.

Some results are limits rather than exact numbers.

Chain of EZH2 (Q15910 whole entry): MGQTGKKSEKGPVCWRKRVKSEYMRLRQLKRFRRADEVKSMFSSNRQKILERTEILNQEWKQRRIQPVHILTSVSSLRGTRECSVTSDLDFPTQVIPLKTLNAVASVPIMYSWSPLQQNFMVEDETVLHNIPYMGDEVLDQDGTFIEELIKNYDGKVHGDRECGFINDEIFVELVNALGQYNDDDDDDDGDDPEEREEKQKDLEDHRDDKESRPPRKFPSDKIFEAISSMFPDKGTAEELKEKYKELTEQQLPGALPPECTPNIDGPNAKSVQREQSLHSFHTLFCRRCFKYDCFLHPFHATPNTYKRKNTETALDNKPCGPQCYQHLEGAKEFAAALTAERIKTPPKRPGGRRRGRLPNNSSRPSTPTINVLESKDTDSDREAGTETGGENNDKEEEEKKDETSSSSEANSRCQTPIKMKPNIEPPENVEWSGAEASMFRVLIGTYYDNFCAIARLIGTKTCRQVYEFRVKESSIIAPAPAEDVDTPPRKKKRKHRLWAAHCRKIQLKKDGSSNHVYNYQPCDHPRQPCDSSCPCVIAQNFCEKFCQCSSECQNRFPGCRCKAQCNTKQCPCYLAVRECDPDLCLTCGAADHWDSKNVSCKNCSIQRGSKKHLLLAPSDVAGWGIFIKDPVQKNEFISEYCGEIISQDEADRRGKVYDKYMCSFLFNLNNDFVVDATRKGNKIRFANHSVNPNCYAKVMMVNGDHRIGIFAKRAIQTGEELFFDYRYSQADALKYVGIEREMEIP
Chain of EZH2 (O75530 whole entry partner): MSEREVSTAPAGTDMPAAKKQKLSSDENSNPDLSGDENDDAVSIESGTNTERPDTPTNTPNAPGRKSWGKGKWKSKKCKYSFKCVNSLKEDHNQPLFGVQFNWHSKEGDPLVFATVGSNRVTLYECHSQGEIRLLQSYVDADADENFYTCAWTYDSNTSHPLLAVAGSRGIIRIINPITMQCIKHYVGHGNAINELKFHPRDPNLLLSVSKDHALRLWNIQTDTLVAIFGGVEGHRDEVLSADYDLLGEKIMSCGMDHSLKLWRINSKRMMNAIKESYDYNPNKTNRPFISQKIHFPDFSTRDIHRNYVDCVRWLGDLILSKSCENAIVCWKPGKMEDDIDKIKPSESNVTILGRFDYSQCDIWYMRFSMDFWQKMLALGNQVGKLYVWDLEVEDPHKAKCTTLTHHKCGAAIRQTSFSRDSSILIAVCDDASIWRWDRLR
Chain of EZH2 (Q15022 whole entry partner): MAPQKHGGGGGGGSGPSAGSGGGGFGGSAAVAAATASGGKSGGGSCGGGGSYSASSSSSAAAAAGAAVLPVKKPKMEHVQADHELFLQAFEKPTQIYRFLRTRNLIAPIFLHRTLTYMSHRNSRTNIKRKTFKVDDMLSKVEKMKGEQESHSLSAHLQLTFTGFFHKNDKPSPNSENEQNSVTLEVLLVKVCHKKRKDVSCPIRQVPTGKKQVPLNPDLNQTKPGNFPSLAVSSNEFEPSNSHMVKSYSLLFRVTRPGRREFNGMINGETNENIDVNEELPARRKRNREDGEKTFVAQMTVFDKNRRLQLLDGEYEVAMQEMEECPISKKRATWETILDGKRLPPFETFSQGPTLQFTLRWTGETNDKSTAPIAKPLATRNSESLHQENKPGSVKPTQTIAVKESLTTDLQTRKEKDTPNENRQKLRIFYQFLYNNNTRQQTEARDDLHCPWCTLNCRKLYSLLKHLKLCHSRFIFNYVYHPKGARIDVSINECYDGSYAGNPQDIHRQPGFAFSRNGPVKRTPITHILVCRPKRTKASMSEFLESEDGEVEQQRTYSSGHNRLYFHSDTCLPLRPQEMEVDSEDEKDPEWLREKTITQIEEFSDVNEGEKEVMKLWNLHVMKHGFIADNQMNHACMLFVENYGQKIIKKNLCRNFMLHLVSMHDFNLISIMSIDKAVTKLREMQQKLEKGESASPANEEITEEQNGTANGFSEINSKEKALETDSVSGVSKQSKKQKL

As for `COc1cccc2nc(Cl)cc(NC3CCN(Cc4ccccc4)CC3)c12` [Compound 1, N-(1-benzylpiperidin-4-yl)-2-chloro-5-methoxyquinolin-4-amine], in the assay on MDA-MB-231, the IC50 is > 20 µM.
Turning to `COc1cccc2nc(N3CCN(C)CC3)cc(NC3CCN(Cc4ccccc4)CC3)c12` [Compound 5a, N-(1-Benzylpiperidin-4-yl)-5-methoxy-2-(4-methylpiperazin-1-yl)quinolin-4-amine], the IC50 at EZH2 was determined as 16.4 ± 1.24 µM; in the assay on HCT15, 12.3 ± 0.95 µM; with MDA-MB-231 it was 11.9 ± 1.83 µM.
In the case of `COc1cccc2nc(N3CCOCC3)cc(NC3CCN(Cc4ccccc4)CC3)c12` [Compound 5b, N-(1-Benzylpiperidin-4-yl)-5-methoxy-2-morpholinoquinolin-4-amine], the figures for the IC50 on EZH2, with HCT15 and in the assay with MDA-MB-231 were 23 ± 2.06 µM, 15.6 ± 1.27 µM and 14.2 ± 1.97 µM, respectively.
Turning to `COc1cccc2nc(N3CCCCC3)cc(NC3CCN(Cc4ccccc4)CC3)c12` [Compound 5c, N-(1-Benzylpiperidin-4-yl)-5-methoxy-2-(piperidin-1-yl)quinolin-4-amine], the values for the IC50 at EZH2, in the assay with HCT15 and in the assay on MDA-MB-231 were 32 ± 2.78 µM, 7.8 ± 0.46 µM and 5.6 ± 0.14 µM, respectively.
Taken in the same sequence, the figures for `COc1cccc2nc(Nc3ncccn3)cc(NC3CCN(Cc4ccccc4)CC3)c12` [Compound 5d, N4-(1-Benzylpiperidin-4-yl)-5-methoxy-N2-(pyrimidin-2-yl)quinoline-2,4-diamine] were 17.5 ± 0.96 µM, > 20 µM and > 20 µM.
For the molecule `COc1cccc2nc(Nc3ccc([N+](=O)[O-])cc3)cc(NC3CCN(Cc4ccccc4)CC3)c12` [Compound 5e, N4-(1-Benzylpiperidin-4-yl)-5-methoxy-N2-(4-nitrophenyl)quinoline-2,4-diamine], the IC50 is 29.4 ± 1.01 µM on EZH2, 17.8 ± 1.27 µM in the assay on HCT15 and 14.9 ± 2.2 µM in the assay on MDA-MB-231.
For `COc1cccc2nc(Nc3cc(C(F)(F)F)cc(C(F)(F)F)c3)cc(NC3CCN(Cc4ccccc4)CC3)c12` [Compound 5f, N4-(1-Benzylpiperidin-4-yl)-N2-(3,5-bis(trifluoromethyl)phenyl)-5-methoxyquinoline-2,4-diamine], the IC50 is 21.6 ± 2.35 µM on EZH2, 10.2 ± 1.24 µM with HCT15 and > 20 µM in the assay with MDA-MB-231.
On to `COc1cccc2nc(N3CCCN(C)CC3)cc(NC3CCN(Cc4ccccc4)CC3)c12` [Compound 5g, N-(1-Benzylpiperidin-4-yl)-5-methoxy-2-(4-methyl-1,4-diazepan-1-yl)quinolin-4-amine], for which the IC50 against EZH2 was 6.6 ± 0.49 µM; with HCT15 it was 3.78 ± 0.07 µM; with MDA-MB-231, 4.56 ± 0.24 µM.
With `COc1cccc2nc(N3CCCN(C)CC3)cc(NCCC(C)C)c12` [Compound 5h, N-Isopentyl-5-methoxy-2-(4-methyl-1,4-diazepan-1-yl)quinolin-4-amine], the concentration for half-maximal inhibition (IC50) against EZH2 stood at 11.5 ± 1.21 µM; with HCT15, 5.46 ± 0.85 µM; with MDA-MB-231, 4.31 ± 0.57 µM.
As for `COc1cccc2nc(N3CCCN(C)CC3)cc(NC3CCN(C(C)C)CC3)c12` [Compound 5i, N-(1-Isopropylpiperidin-4-yl)-5-methoxy-2-(4-methyl-1,4-diazepan-1-yl)quinolin-4-amine], the figures for the IC50 against EZH2, in the assay on HCT15 and with MDA-MB-231 were 17.4 ± 1.07 µM, > 20 µM and 15.7 ± 1.27 µM, respectively.
Taken in the same sequence, the figures for `COc1cccc2nc(N3CCCN(C)CC3)cc(NCCN3CCN(C)CC3)c12` [Compound 5j, 5-Methoxy-2-(4-methyl-1,4-diazepan-1-yl)-N-(2-(4-methylpiperazin-1-yl)ethyl)quinolin-4-amine] were 4.2 ± 0.2 µM, 18.6 ± 2.2 µM and 12.4 ± 0.95 µM.
Consider `COc1cccc2nc(N3CCCN(C)CC3)cc(NC3CCOCC3)c12` [Compound 5l, 5-Methoxy-2-(4-methyl-1,4-diazepan-1-yl)-N-(tetrahydro-2H-pyran-4-yl)quinolin-4-amine], for which the IC50 at EZH2 is 2.8 ± 0.21 µM; with HCT15, 15.5 ± 0.2 µM; in the assay on MDA-MB-231 it was 2.4 ± 0.49 µM.
`COc1ccc(Nc2cc(N3CCCN(C)CC3)nc3cccc(OC)c23)cc1` [Compound 5m, 5-Methoxy-N-(4-methoxyphenyl)-2-(4-methyl-1,4-diazepan-1-yl)quinolin-4-amine]: the IC50 against EZH2 was 19.7 ± 2.56 µM; with HCT15, 18.9 ± 1.97 µM; in the assay with MDA-MB-231 it was > 20 µM.
Taken in the same sequence, the figures for `COc1cccc2nc(N3CCCN(C)CC3)cc(Nc3ccc(C(C)C)cc3)c12` [Compound 5n, N-(4-Isopropylphenyl)-5-methoxy-2-(4-methyl-1,4-diazepan-1-yl)quinolin-4-amine] were 26.4 ± 2.04 µM, 14.6 ± 1.27 µM and 13.2 ± 2.53 µM.
Taken in the same sequence, the figures for `COc1ccccc1Nc1cc(N2CCCN(C)CC2)nc2cccc(OC)c12` [Compound 5o, 5-Methoxy-N-(2-methoxyphenyl)-2-(4-methyl-1,4-diazepan-1-yl)quinolin-4-amine] were 17.5 ± 1.13 µM, > 20 µM and > 20 µM.
On to `COc1cccc2nc(N3CCCN(C)CC3)cc(Nc3ccc(N(C)C)cc3)c12` [Compound 5p, N1-(5-Methoxy-2-(4-methyl-1,4-diazepan-1-yl)quinolin-4-yl)-N4,N4-dimethylbenzene-1,4-diamine], for which the IC50 on EZH2 came out at 27.6 ± 0.97 µM; in the assay with HCT15 it was 17.4 ± 1.54 µM; with MDA-MB-231 it was 16.2 ± 1.67 µM.
On to `COc1ccc(Nc2cc(N3CCCN(C)CC3)nc3cccc(OC)c23)c(C)c1` [Compound 5q, 5-Methoxy-N-(4-methoxy-2-methylphenyl)-2-(4-methyl-1,4-diazepan-1-yl)quinolin-4-amine], for which the IC50 is 34.8 ± 1.54 µM against EZH2, 16.9 ± 0.36 µM in the assay on HCT15 and 14.5 ± 1.23 µM in the assay with MDA-MB-231.
For `COc1cccc2nc(N3CCCN(C)CC3)cc(Nc3ccc(C)cc3)c12` [Compound 5r, 5-Methoxy-2-(4-methyl-1,4-diazepan-1-yl)-N-(p-tolyl)quinolin-4-amine], the figures for the IC50 at EZH2, with HCT15 and with MDA-MB-231 were 39.7 ± 1.26 µM, 12.9 ± 0.89 µM and > 20 µM, respectively.
Taken in the same sequence, the figures for `COc1cccc(Nc2cc(N3CCCN(C)CC3)nc3cccc(OC)c23)c1` [Compound 5s, 5-Methoxy-N-(3-methoxyphenyl)-2-(4-methyl-1,4-diazepan-1-yl)quinolin-4-amine] were 16.8 ± 0.94 µM, 19.6 ± 0.56 µM and 16.9 ± 1.06 µM.
In the case of `COc1cccc2nc(N3CCCN(C)CC3)cc(Nc3cncnc3)c12` [Compound 5t, 5-Methoxy-2-(4-methyl-1,4-diazepan-1-yl)-N-(pyrimidin-5-yl)quinolin-4-amine], the IC50 against EZH2 was 35.3 ± 1.61 µM; in the assay with HCT15, > 20 µM; in the assay with MDA-MB-231 it was > 20 µM.
On to `COc1cccc2nc(N3CCCN(C)CC3)cc(Nc3ccc([N+](=O)[O-])cc3)c12` [Compound 5u, 5-Methoxy-2-(4-methyl-1,4-diazepan-1-yl)-N-(4-nitrophenyl)quinolin-4-amine], for which the IC50 on EZH2 is 26.2 ± 2.54 µM; with HCT15, 17.8 ± 1.27 µM; in the assay on MDA-MB-231, 14.9 ± 2.2 µM.
For the molecule `COc1cccc2nc(N3CCCN(C)CC3)cc(Nc3cc(C(F)(F)F)cc(C(F)(F)F)c3)c12` [Compound 5v, N-(3,5-Bis(trifluoromethyl)phenyl)-5-methoxy-2-(4-methyl-1,4-diazepan-1-yl)quinolin-4-amine], the IC50 against EZH2 is 34.1 ± 2.22 µM; in the assay on HCT15, 10.2 ± 1.24 µM; in the assay on MDA-MB-231, > 20 µM.
Taken in the same sequence, the figures for `COc1ccc2nc(N3CCCN(C)CC3)cc(NC3CCN(C)CC3)c2c1OC` [Compound 9d, 5,6-Dimethoxy-2-(4-methyl-1,4-diazepan-1-yl)-N-(1-methylpiperidin-4-yl)quinolin-4-amine] were 5.6 ± 0.45 µM, 8.6 ± 2.2 µM and 12.4 ± 0.95 µM.
Turning to `COc1cc(OC)c2c(NC3CCN(C)CC3)cc(N3CCCN(C)CC3)nc2c1` [Compound 9e, 5,7-Dimethoxy-2-(4-methyl-1,4-diazepan-1-yl)-N-(1-methylpiperidin-4-yl)quinolin-4-amine], the IC50 against EZH2 stood at 6.7 ± 0.36 µM; with HCT15 it was 10.6 ± 0.83 µM; with MDA-MB-231, 12.5 ± 0.62 µM.
With `COc1ccc(OC)c2c(NC3CCN(C)CC3)cc(N3CCCN(C)CC3)nc12` [Compound 9f, 5,8-Dimethoxy-2-(4-methyl-1,4-diazepan-1-yl)-N-(1-methylpiperidin-4-yl)quinolin-4-amine], the results for the half-inhibitory concentration (IC50) against EZH2, in the assay on HCT15 and in the assay on MDA-MB-231 were 9.2 ± 0.51 µM, 15.5 ± 0.53 µM and 12.4 ± 0.49 µM, respectively.
Turning to `COc1cc2nc(N3CCCN(C)CC3)cc(NC3CCN(C)CC3)c2cc1OC` [Compound 9g, 6,7-Dimethoxy-2-(4-methyl-1,4-diazepan-1-yl)-N-(1-methylpiperidin-4-yl)quinolin-4-amine], the IC50 at EZH2 is 17.8 ± 2.07 µM; in the assay on HCT15 it was 15.9 ± 1.85 µM; in the assay with MDA-MB-231 it was > 20 µM.
Take `COc1cc(OC)c2nc(N3CCCN(C)CC3)cc(NC3CCN(C)CC3)c2c1` [Compound 9h, 6,8-Dimethoxy-2-(4-methyl-1,4-diazepan-1-yl)-N-(1-methylpiperidin-4-yl)quinolin-4-amine]: the IC50 amounted to 14.9 ± 1.71 µM on EZH2, 19.8 ± 1.27 µM in the assay with HCT15 and 13.2 ± 1.64 µM with MDA-MB-231.
Taken in the same sequence, the figures for `COc1ccc2c(NC3CCN(C)CC3)cc(N3CCCN(C)CC3)nc2c1OC` [Compound 9i, 7,8-Dimethoxy-2-(4-methyl-1,4-diazepan-1-yl)-N-(1-methylpiperidin-4-yl)quinolin-4-amine] were 13.7 ± 1.32 µM, > 20 µM and > 20 µM.
